We go through 23 compounds from patent US10709709B2, “Substituted carbonucleoside derivatives useful as anticancer agents” (Pfizer Inc., priority 2016, dated 2020).

Assay [1] deals with PRMT5/MEP50 protein complex (Homo sapiens (Human), UniProt O14744). Put plainly: PRMT5 biochemical assay (3H-SAM methylation of H4(1-21) peptide, filter plate scintillation). Particulars: 10 nM PRMT5/MEP50 complex, 200 nM H4(1-21) peptide, 1 uM SAM, 25 minute incubation at room temperature. The method, boiled down:
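Scintillation read-out: after 25 min at room temperature and a TCA stop, tritiated H4(1-21) product (peptide 200 nM) is caught on a filter plate. Reaction holds 10 nM PRMT5/MEP50 and 1 uM 3H-labelled plus cold SAM in 50 mM Tris pH 8.5 with MgCl2, EDTA and TCEP. IC50 values come from a 4-parameter dose-response fit.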

Assay [2] deals with A549 lung adenocarcinoma cells. Put plainly: A549 proliferation assay (Cell Titer Glo). Particulars: Homo sapiens, 7 days with compound, cell viability by Cell Titer Glo (ATP). It is filed as cell-based. Here is the method: A549 lung adenocarcinoma cells (American Type Culture Collection) were maintained in DMEM growth media (Life Technologies) supplemented with 10% v/v heat inactivated fetal bovine serum (Sigma) and cultured at 37° C., 5% CO2. Exponentially growing A549 cells were plated in 96-well black tissue culture treated plates (Corning) at a density of […] in a volume of 100 μl culture media and allowed to adhere overnight at 37° C., 5% CO2. The following day, compound plates were prepared by making nine-point 3.3-fold dilutions in DMSO with a top concentration of 10 mM. Compounds were further diluted in culture media and 11 μl was added to the cells (final top assay concentration was 10 μM and DMSO was 0.2%). Cells were incubated with compound at 37° C., 5% CO2 for 7 days with media and compound replacement on day 4. Cell viability was assayed on Day 7 by adding 100 μl Cell Titer Glo (Promega) reagent to the plate to measure the amount of ATP present in the cells. Luminescence was read using the Envision 2104 Multilabel Reader (Perkin Elmer). The 50% inhibitory concentration (IC50) was determined using a 4-parameter fit model normalized to the DMSO control in dose response.
In general terms: ATP-based viability assays read luminescence as a measure of living cells.

PRMT5/MEP50 protein complex, sequence (O14744 other isoform, or with tags, fused parts or gaps): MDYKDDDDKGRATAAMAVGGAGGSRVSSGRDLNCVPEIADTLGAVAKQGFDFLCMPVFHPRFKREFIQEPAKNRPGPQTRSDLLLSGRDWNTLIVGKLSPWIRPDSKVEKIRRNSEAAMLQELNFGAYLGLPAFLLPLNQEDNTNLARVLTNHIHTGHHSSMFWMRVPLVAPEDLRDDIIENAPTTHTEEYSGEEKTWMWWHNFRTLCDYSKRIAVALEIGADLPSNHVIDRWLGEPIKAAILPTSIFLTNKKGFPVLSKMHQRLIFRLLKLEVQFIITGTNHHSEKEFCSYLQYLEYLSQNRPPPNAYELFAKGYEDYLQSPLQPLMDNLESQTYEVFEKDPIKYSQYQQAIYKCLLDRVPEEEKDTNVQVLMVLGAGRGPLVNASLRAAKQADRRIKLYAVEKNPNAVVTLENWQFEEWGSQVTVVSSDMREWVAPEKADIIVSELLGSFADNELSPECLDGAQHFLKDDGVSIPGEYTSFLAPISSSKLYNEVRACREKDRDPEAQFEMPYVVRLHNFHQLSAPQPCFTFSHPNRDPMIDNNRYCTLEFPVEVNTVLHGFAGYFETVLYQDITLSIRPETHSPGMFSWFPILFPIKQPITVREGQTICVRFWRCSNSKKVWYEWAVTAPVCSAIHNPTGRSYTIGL
PRMT5/MEP50 protein complex, sequence (Q9BQA1 whole entry partner): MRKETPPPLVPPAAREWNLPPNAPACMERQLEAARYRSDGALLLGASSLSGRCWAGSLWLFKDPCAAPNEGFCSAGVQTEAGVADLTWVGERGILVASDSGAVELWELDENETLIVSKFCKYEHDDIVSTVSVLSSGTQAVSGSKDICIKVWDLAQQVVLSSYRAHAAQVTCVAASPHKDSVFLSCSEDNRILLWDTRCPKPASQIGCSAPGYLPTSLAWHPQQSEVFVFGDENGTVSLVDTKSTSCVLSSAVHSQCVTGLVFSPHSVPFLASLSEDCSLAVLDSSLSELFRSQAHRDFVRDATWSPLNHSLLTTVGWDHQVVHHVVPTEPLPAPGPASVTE

In general, IC50 refers to the concentration that gives 50% inhibition. `Cc1ncnc2c1ccn2[C@@H]1C[C@H]([C@H](O)c2ccc(Cl)cc2)[C@@H](O)[C@H]1O` [Example 11, (1S,2R,3R,5R)-3-[(S)-(4-chlorophenyl)(hydroxy)methyl]-5-(4-methyl-7H-pyrrolo[2,3-d]pyrimidin-7-yl)cyclopentane-1,2-diol]: the half-inhibitory concentration (IC50) was determined as 0.02 µM in assay [1] and 1.39 µM in assay [2] (168 h).
In the same order, the values of `Cc1ncnc2c1ccn2[C@@H]1C[C@H]([C@H](O)c2cc(F)c(F)c(F)c2)[C@@H](O)[C@H]1O` [Example 13, (1S,2R,3R,5R)-3-[(S)-hydroxy(3,4,5-trifluorophenyl)methyl]-5-(4-methyl-7H-pyrrolo[2,3-d]pyrimidin-7-yl)cyclopentane-1,2-diol] are 0.016 µM and 0.971 µM.
As for `Cc1ncnc2c1ccn2[C@@H]1C[C@H]([C@](C)(O)c2ccc(F)cc2)[C@@H](O)[C@H]1O` [Example 19, (1S,2R,3S,5R)-3-[(1 S)-1-(4-fluorophenyl)-1-hydroxyethyl]-5-(4-methyl-7H-pyrrolo[2,3-d]pyrimidin-7-yl)cyclopentane-1,2-diol], the IC50 in assay [1] was 0.064 µM; in assay [2] (A549, 168 h), 1.07 µM.
In the same order, the values of `Nc1ncnc2c1c(F)cn2[C@@H]1C[C@H]([C@H](O)c2ccc(F)cc2)[C@@H](O)[C@H]1O` [Example 25, (1R,2S,3R,5R)-3-(4-amino-5-fluoro-7H-pyrrolo[2,3-d]pyrimidin-7-yl)-5-[(S)-(4-fluorophenyl)(hydroxy)methyl]cyclopentane-1,2-diol] are 0.056 µM and 1.67 µM.
In the same order, the values of `Cc1nc(N)nc2c1ccn2[C@@H]1C[C@H]([C@H](O)c2ccc(F)c(F)c2)[C@@H](O)[C@H]1O` [Example 48, (1R,2S,3R,5R)-3-(2-amino-4-methyl-7H-pyrrolo[2,3-d]pyrimidin-7-yl)-5-[(S)-(3,4-difluorophenyl)(hydroxy)methyl]cyclopentane-1,2-diol] are 0.005 µM and 0.192 µM.
For `Cc1ncnc2c1ccn2[C@@H]1C[C@H]([C@H](O)c2ccc(Cl)cc2CN)[C@@H](O)[C@H]1O` [Example 53, (1S,2R,3R,5R)-3-((S)-(2-(aminomethyl)-4-chlorophenyl)(hydroxy)methyl)-5-(4-methyl-7H-pyrrolo[2,3-d]pyrimidin-7-yl)cyclopentane-1,2-diol] the same measures were 0.006 µM and 0.227 µM.
As to `Cc1ncnc2c1ccn2[C@@H]1C[C@H](Cc2ccc(Cl)cc2CN)[C@@H](O)[C@H]1O` [Example 55, (1S,2R,3S,5R)-3-(2-(aminomethyl)-4-chlorobenzyl)-5-(4-methyl-7H-pyrrolo[2,3-d]pyrimidin-7-yl)cyclopentane-1,2-diol], the IC50 in assay [1] worked out at 0.002 µM; in assay [2] (A549, 168 h), 3.17 µM.
As for `Cc1ncnc2c1ccn2[C@@H]1C[C@H]([C@H](O)c2cccc3c2CNCC3)[C@@H](O)[C@H]1O` [Example 56, (1S,2R,3R,5R)-3-((S)-hydroxy(1,2,3,4-tetrahydroisoquinolin-8-yl)methyl)-5-(4-methyl-7H-pyrrolo[2,3-d]pyrimidin-7-yl)cyclopentane-1,2-diol], the IC50 in assay [1] came out at 0.002 µM; in assay [2] (A549, 168 h), 0.378 µM.
In the same order, the values of `Cc1ncnc2c1ccn2[C@@H]1C[C@H](Oc2ccc(F)cc2CN)[C@@H](O)[C@H]1O` [Example 66, (1S,2S,3S,5R)-3-(2-(aminomethyl)-4-fluorophenoxy)-5-(4-methyl-7H-pyrrolo[2,3-d]pyrimidin-7-yl)cyclopentane-1,2-diol] are 0.004 µM and 6.81 µM.
Regarding `Cc1ncnc2c1ccn2C1C[C@H](Oc2cccc3ccncc23)[C@@H](O)[C@H]1O` (stereo partly drawn) [Example 77, (1S,2S,3S,5R)-3-(isoquinolin-8-yloxy)-5-(4-methyl-7H-pyrrolo[2,3-d]pyrimidin-7-yl)cyclopentane-1,2-diol], the IC50 was 0.065 µM in assay [1] and 1.12 µM in assay [2] (A549, 168 h).
For `Cc1ncnc2c1ccn2[C@@H]1C[C@H](Oc2cccc3c2CNCC3)[C@@H](O)[C@H]1O` [Example 78, (1S,2S,3R,5S)-3-(4-methyl-7H-pyrrolo[2,3-d]pyrimidin-7-yl)-5-((1,2,3,4-tetrahydroisoquinolin-8-yl)oxy)cyclopentane-1,2-diol] the same measures were 0.001 µM and 1.61 µM.
For `Cc1ncnc2c1ccn2[C@@H]1C[C@H](Oc2ccc(F)c3c2CNCC3)[C@@H](O)[C@H]1O` [Example 84, (1S,2S,3S,5R)-3-((5-fluoro-1,2,3,4-tetrahydroisoquinolin-8-yl)oxy)-5-(4-methyl-7H-pyrrolo[2,3-d]pyrimidin-7-yl)cyclopentane-1,2-diol] the same measures were 0.002 µM and 0.5 µM.
In the same order, the values of `Cc1ncnc2c1ccn2[C@@H]1C[C@H](Oc2cc(F)cc3c2CNCC3)[C@@H](O)[C@H]1O` [Example 85, (1S,2S,3S,5R)-3-((6-fluoro-1,2,3,4-tetrahydroisoquinolin-8-yl)oxy)-5-(4-methyl-7H-pyrrolo[2,3-d]pyrimidin-7-yl)cyclopentane-1,2-diol] are 0.002 µM and 0.92 µM.
As to `Cc1ncnc2c1ccn2[C@@H]1C[C@H](Oc2ccc(Cl)c3c2CNCC3)[C@@H](O)[C@H]1O` [Example 86, (1S,2S,3S,5R)-3-((5-chloro-1,2,3,4-tetrahydroisoquinolin-8-yl)oxy)-5-(4-methyl-7H-pyrrolo[2,3-d]pyrimidin-7-yl)cyclopentane-1,2-diol], the IC50 in assay [1] came out at 0.004 µM; in assay [2] (A549, 168 h), 1.84 µM.
In the same order, the values of `Cc1ncnc2c1ccn2[C@@H]1C[C@H](Oc2cc(Cl)cc3c2CNCC3)[C@@H](O)[C@H]1O` [Example 87, (1S,2S,3S,5R)-3-((6-chloro-1,2,3,4-tetrahydroisoquinolin-8-yl)oxy)-5-(4-methyl-7H-pyrrolo[2,3-d]pyrimidin-7-yl)cyclopentane-1,2-diol] are 0.002 µM and 0.296 µM.
Turning to `Cc1cc2c(c(O[C@H]3C[C@@H](n4ccc5c(C)ncnc54)[C@H](O)[C@@H]3O)c1)CNCC2` [Example 88, (1S,2S,3R,5S)-3-(4-methyl-7H-pyrrolo[2;3-d]pyrimidin-7-yl)-5-[(6-methyl-1,2,3,4-tetrahydroisoquinolin-8-yl)oxy]cyclopentane-1,2-diol], the IC50 came out at 0.001 µM in assay [1] and 0.545 µM in assay [2] (A549, 168 h).
On to `Cc1ncnc2c1ccn2[C@@H]1C[C@H](Oc2cc(Br)cc3c2CNCC3)[C@@H](O)[C@H]1O` [Example 89, (1S,2S,3S,5R)-3-((6-bromo-1,2,3,4-tetrahydroisoquinolin-8-yl)oxy)-5-(4-methyl-7H-pyrrolo[2,3-d]pyrimidin-7-yl)cyclopentane-1,2-diol], for which the IC50 in assay [1] was determined as 0.001 µM; in assay [2] (A549, 168 h), 0.195 µM.
For `Cc1ncnc2c1ccn2[C@@H]1C[C@H](Oc2cc(C(F)(F)F)cc3c2CNCC3)[C@@H](O)[C@H]1O` [Example 90, (1S,2S,3R,5S)-3-(4-methyl-7H-pyrrolo[2,3-d]pyrimidin-7-yl)-5-((6-(trifluoromethyl)-1,2,3,4-tetrahydroisoquinolin-8-yl)oxy)cyclopentane-1,2-diol] the same measures were 0.002 µM and 0.948 µM.
Consider `Cc1ncnc2c1ccn2[C@@H]1C[C@H](Oc2cc(C#N)cc3c2CNCC3)[C@@H](O)[C@H]1O` [Example 91, 8-(((1S,2S,3S,4R)-2,3-dihydroxy-4-(4-methyl-7H-pyrrolo[2,3-d]pyrimidin-7-yl)cyclopentyl)oxy)-1,2,3,4-tetrahydroisoquinoline-6-carbonitrile], for which the IC50 in assay [1] was 0.001 µM; in assay [2] (A549, 168 h) it was 0.119 µM.
For `Cc1ncnc2c1ccn2[C@@H]1C[C@H](Oc2cc(F)c(F)c3c2CNCC3)[C@@H](O)[C@H]1O` [Example 92, (1S,2S,3S,5R)-3-((5,6-difluoro-1,2,3,4-tetrahydroisoquinolin-8-yl)oxy)-5-(4-methyl-7H-pyrrolo[2,3-d]pyrimidin-7-yl)cyclopentane-1,2-diol] the same measures were 0.001 µM and 0.312 µM.
For `Cc1ncnc2c1ccn2[C@@H]1C[C@H](Oc2cc(Cl)c(F)c3c2CNCC3)[C@@H](O)[C@H]1O` [Example 93, (1S,2S,3S,5R)-3-((6-chloro-5-fluoro-1,2,3,4-tetrahydroisoquinolin-8-yl)oxy)-5-(4-methyl-7H-pyrrolo[2,3-d]pyrimidin-7-yl)cyclopentane-1,2-diol] the same measures were 0.001 µM and 0.14 µM.
For `Cc1ncnc2c1ccn2[C@@H]1C[C@H](Oc2cc(Br)c(F)c3c2CNCC3)[C@@H](O)[C@H]1O` [Example 94, (1S,2S,3S,5R)-3-((6-bromo-5-fluoro-1,2,3,4-tetrahydroisoquinolin-8-yl)oxy)-5-(4-methyl-7H-pyrrolo[2,3-d]pyrimidin-7-yl)cyclopentane-1,2-diol] the same measures were 0.001 µM and 0.115 µM.
Turning to `Cc1ncnc2c1ccn2[C@@H]1C[C@H](Oc2cncc3c2CNCC3)[C@@H](O)[C@H]1O` [Example 95, (1S,2S,3R,5S)-3-(4-methyl-7H-pyrrolo[2,3-d]pyrimidin-7-yl)-5-((5,6,7,8-tetrahydro-2,6-naphthyridin-4-yl)oxy)cyclopentane-1,2-diol], the IC50 in assay [1] is 0.006 µM; in assay [2] (A549, 168 h), 8.13 µM.
